Source: US20230227838A1, “ENHANCED CELL SURVIVAL AGAINST BIOTIC AND ABIOTIC STRESSES THROUGH SALICYLICK ACID-INDUCED NPR1 CONDENSATES” (priority 2020, published 2023)

Columns and labels:
ETI activated by RPP1 = assay: ATR1/RPP1-induced cell death (conductivity assay); assay type: in vivo, Nicotiana benthamiana; conditions: SA/NPR1-mediated; 1 mM SA
Excerpt: (§1) Chemical treatment, pathogen infection and cell death assays. […] At 2 days, the bacterial colonies were scored.
VIGS assay. The silencing of NbNPR1 (NbNPR1-RNAi) and NbCUL3 (NbCUL3-RNAi) was done using VIGS assay performed as previously described. Ten-day-old WT N. benthamiana plants were inoculated with Agrobacteria (GV3101) carrying the helper plasmid pTRV1-LIC mixed at 1:1 with a strain carrying either pTRV2-LIC (empty vector control, E.V.), pTRV2-NbPDS (positive control), pTRV2-NbNPR1 or pTRV2-NbCUL3 vectors. Ten days later, gene silencing in the mock and SA-treated plants was verified in the systemic leaves by qPCR using gene-specific and reference gene (eIF4a) primers (Table 6). NbNPR1 silencing was additionally confirmed by analysis of NbPR1 expression. The silenced leaves were used in the standard transient expression assay by agroinfiltration using strains carrying the indicated test genes; and gene expression was assayed at 2 dpi.

ETI activated by RPS4 = assay: Cell death after Pf Pf0-1/AvrRps4 inoculation (conductivity assay); assay type: in vivo, Arabidopsis thaliana; conditions: SA/NPR1-mediated
Excerpt: as §1

[1] = system: cell death triggered by in planta expression of the effector, AvrRpt2; conditions: SA treatment before dexamethasone induction
Procedure: (§2) Chemical treatment, pathogen infection and cell death assays. For soil-grown Arabidopsis plants, SA treatment was carried out with spray at indicated concentrations. For seedlings grown vertically on solid 1/2 MS medium for 10-12 days, SA […] treatment (1 mM), with or without the proteasome inhibitor MG132 (50 μM), and protein synthesis […] inhibitor cycloheximide (100 μM) was done by submerging them in solutions for indicated periods. Unless otherwise stated, in N. benthamiana, SA treatment was done by infiltrating leaves 24 hr after agroinfiltration. SA pre-treatment of mature Arabidopsis was done by spray 24 hr before bacterial infection or cell death induction. For bacterial infections, Pseudomonas syringae pv. maculicola ES4326 carrying AvrRpt2 or AvrRpm1 effectors, and Pf Pf0-1 carrying functional AvrRps4 or non-functional AvrRps4KRVY-AAAA effectors were grown for 2 days on solid King's B medium supplemented with appropriate antibiotics. […] Bacteria were pressure infiltrated into mature leaves of three-week-old Arabidopsis plants and cell death or bacterial growth were assessed at indicated times post inoculation (hpi, hours post inoculation; dpi, days post inoculation). […]

[2] = system: cell death induced by heat shock, oxidative and DNA damage stresses; conditions: 1 mM SA 24 hr before stress; WT, not in npr1-2
Procedure: as §2

Psm ES4326/AvrRpt2 = assay: Bacterial growth assay in infected leaves; assay type: in vivo, Arabidopsis thaliana; conditions: SA pretreatment at 0.5 and 1 mM; WT plants, not in npr1-2 mutant
Excerpt: as §1

WRKY70-GFP = assay: Stability and ubiquitination of WRKY70-GFP; assay type: in vivo, Arabidopsis thaliana
Procedure: as §1
Protein analysis and IP. Recombinant protein analysis was performed using transient expression in N. benthamiana, or stable over-expression in transgenic Arabidopsis, or expression in E. coli. Total protein extraction from plants was performed by homogenizing leaf tissue in the plant extraction buffer [50 mM Tris-HCl (pH 7.5), 150 mM NaCl, 5 mM EDTA, 0.2% Triton X-100, 0.2% Nonidet P-40] supplemented with 1 mM PMSF, 100 μM MG132, and EDTA-free protease inhibitor cocktail (Roche). For ubiquitinated protein analysis in plants, 100 μM of DUB (deubiquitinase) inhibitor (LifeSensors) and 10 mM NEM were added. Next, the lysates were cleared by centrifugation at 14,000 rpm for 15 min followed by filtering through a 0.2 μm filter. […] Pull-downs or IP experiments were done on total protein extracts by incubating protein samples in the lysis buffer overnight with indicated affinity tag or antibody conjugated to agarose or magnetic beads: GFP-trap agarose beads (Chromotek) for GFP fusions; RFP-trap agarose beads (Chromotek) for mCherry fusions; anti-HA magnetic beads (ThermoFisher) for HA tag fusions; anti-DYKDDDDK coupled magnetic agarose (ThermoFisher) for FLAG tag fusions; and glutathione magnetic agarose (ThermoFisher) for GST fusions. […]

O=C(O)c1ccccc1O [SA, salicylic acid]
ETI activated by RPP1 (effector ATR1) (ETI activated by RPP1): inhibition | ETI activated by RPS4 (effector AvrRps4) (ETI activated by RPS4): inhibition | cell death triggered by in planta expression of AvrRpt2 [1]: protect against cell death | cell death induced by heat shock, oxidative and DNA damage stresses [2]: significantly suppressed cell death | pathogen growth (Psm ES4326/AvrRpt2): increased pathogen growth | ubiquitination of WRKY70-GFP (WRKY70-GFP; 1 mM SA for 24 h, WT, not npr1-2): increased ubiquitination of WRKY70-GFP | WRKY70-GFP protein level (WRKY70-GFP; 1 mM SA for 24 hr, NPR1- and proteasome-dependent): reduced
